Key:
synaptopodin = experiment: Synaptopodin immunofluorescence of kidney tissue in puromycin-induced nephropathic rats; type: in vivo, Sprague-Dawley rats; conditions: 20th day, 10 mg/kg intragastrically every day
Description: (§1) The animal experiment was approved by Animal Ethics Committee of Peking University First Hospital, with Resolution No.: J201644. 51 male Sprague-Dawley rats (6 weeks) of the same batch were purchased from Beijing Charles River Company, raised at the animal center of Peking University First Hospital (clean grade), and randomly divided into 3 groups after 3 days of acclimation:
(§2) In the above, groups 2 and 3 were intraperitoneally subjected to single injection of puromycin (Sigma P7130) by 15 mg/100 g at day 0 of the experiment. The normal control group was intraperitoneally injected with the same dosage of physiological saline. Group 3 was intragastrically treated with 10 mg/kg verbascoside every day, and groups 1 and 2 were intragastrically treated with the same dosage of injection water every day. In the experiment process, 24-hour urine of the rats was collected respectively before the administration (Day 0), and at the 5th day, the 10th day, the 15th day, and the 20th day (Day 5, Day 10, Day 15, and Day 20) after the administration, for quantitative measurement of urine protein (Hitachi 7170A full-automatic biochemical analyzer). […]
(§3) The kidney tissue was sliced. […] The mixture was rinsed with deionized water, mounted with 50% buffered glycerol, edge sealed with nail polish, observed under a fluorescence microscope, and photographed. […]

[1] = test system: rats suffering from puromycin-caused nephropathy; experiment: 24-hour urine protein in rats suffering from puromycin-caused nephropathy; type: in vivo, Sprague-Dawley rats; conditions: 10 mg/kg verbascoside intragastrically every day
Excerpt: as §1
1. normal control group (CON)
2. puromycin disease group (PAN)
3. puromycin+verbascoside-treated group (PAN+ACT)
In the above, groups 2 and 3 were intraperitoneally subjected to single injection of puromycin (Sigma P7130) by 15 mg/100 g at day 0 of the experiment. The normal control group was intraperitoneally injected with the same dosage of physiological saline. Group 3 was intragastrically treated with 10 mg/kg verbascoside every day, and groups 1 and 2 were intragastrically treated with the same dosage of injection water every day. In the experiment process, 24-hour urine of the rats was collected respectively before the administration (Day 0), and at the 5th day, the 10th day, the 15th day, and the 20th day (Day 5, Day 10, Day 15, and Day 20) after the administration, for quantitative measurement of urine protein (Hitachi 7170A full-automatic biochemical analyzer). The rats were sacrificed at the 20th day (Day 20) after the injection of puromycin, and kidney specimens were collected, which were subsequently used for extracting protein, extracting RNA, taking paraffin-embedded and frozen specimens, and separating glomeruli.
In order to determine the therapeutic effect of verbascoside on the rats suffering from puromycin-caused nephropathy, the rats were divided into 3 groups, normal control group (CON), disease group (PAN), and verbascoside group (PAN+ACT). 24-hour urine of the rats in each group were sampled every 5 days. The effect of verbascoside for treating the nephropathic proteinuria level was reflected by collecting and detecting blood and urine samples of the rats in each group.

mouse podocyte line MPC5 [2] = experiment: Detection of podocyte activity with MTS in puromycin-induced podocyte damage; type: cell-based; conditions: 24 h
Description: (§4) A mouse podocyte line MPC5 was offered by professor Peter Mundel from Mount Sinai Medical School, New York, USA. After recovery, podocytes were placed in a 33° C., 5% CO2 cell incubator to be cultured for proliferation thereof. When a fusion degree thereof reached about 80%, the podocytes were transferred into a 37° C. incubator to be differentiated for 10-14 days such that the podocytes were differentiated to be mature. After the podocytes were differentiated to be mature, the podocytes were inoculated in a 6-well plate, and after the podocytes adhered to the wall, puromycin and verbascoside were added into the plate to stimulate the podocytes for 24 hours, and then proteins or RNAs were collected for later detection.
After subculturing and counting the podocytes, the podocytes were uniformly inoculated into a 96-well plate at a density of 1.0×10^5/mL, after the cells adhered to the wall, puromycin and verbascoside were respectively added to treat the podocytes, then after 24 h, the culture medium was discarded, a culture medium containing MTS (Promega G1112) was added with the MTS content of 10 μl MTS per 100 μl of the culture medium, the 96-well plate added with the MTS was placed in a light-tight environment at 37° C. for 4 h and then taken out, and an OD value was measured at 490 nm wavelength using the ELIASA.

podocyte foot process = experiment: Podocyte foot process under electron microscope in puromycin-induced nephropathic rat models; type: in vivo, Sprague-Dawley rats; conditions: 20th day; 10 mg/kg intragastrically every day
Description: as §1, §2

mouse podocyte line MPC5 [3] = experiment: Cell migration (scratch) experiment in puromycin-treated podocytes; type: cell-based; conditions: 24 hours after scratch
Description: as §4
The differentiated podocytes were inoculated on a 6-well plate coated with rat type I collagen, and when the fusion degree thereof reached 60%, a line was scratched on a baseboard using a 200 μL sterile high-pressure gun tip, then the plate was flushed clean using PBS and a clean culture medium was used in replacement, which time was served as the 0th hour, and a photo was taken by an inverted microscope, then a corresponding drug was added for intervention, then after 24 hours, a photo was taken again, and finally analysis was made using ImageJ software. The final result was expressed by percentage of coverage.

nephrin [4] = experiment: Nephrin protein expression in puromycin-induced podocyte damage (western blot); type: cell-based, mouse; conditions: 24 hours
Description: as §4, with “detection. […]” for “detection.”

nephrin [5] = experiment: Nephrin gene and protein expression in glomeruli of puromycin-induced nephropathic rats (western, real-time quantitative PCR); type: in vivo, Sprague-Dawley rats; conditions: 20th day, 10 mg/kg intragastrically every day
Description: as §1, §2

mouse podocyte line MPC5 [6] = experiment: Phalloidin staining of podocyte cytoskeletal microfilamentous proteins; type: cell-based; conditions: puromycin-treated podocytes
Description: as §4
as §3, with “sliced. First, slices were subjected to xylene and gradient alcohol deparaffinization, followed by antigen retrieval, and then punched with 0.3% Triton-PBS.” for “sliced.”

Verbascoside
synaptopodin fluorescence intensity (synaptopodin): recovered | 24-hour urine protein vs puromycin group ([1]; 5th day, puromycin 15 mg/100 g i.p.): not significantly different | 24-hour urine protein vs disease group ([1]; 10th day, puromycin 15 mg/100 g i.p.): decreased significantly | 24-hour proteinuria abnormality ([1]; 15th day): remarkably relieved | 24-hour proteinuria abnormality ([1]; 20th day): remarkably relieved | podocyte viability (MTS, OD 490 nm) (mouse podocyte line MPC5 [2]): recovered | podocyte foot process fusion (electron microscope) (podocyte foot process): recovered apparently | podocyte migration capability (percentage of coverage) (mouse podocyte line MPC5 [3]): restored | nephrin expression (protein) (nephrin [4]): improved | nephrin gene expression level (real-time quantitative PCR) (nephrin [5]): increased | nephrin protein expression level (western) (nephrin [5]): increased | arrangement of the cytoskeletons (phalloidin) (mouse podocyte line MPC5 [6]): restored

From patent US11471472B2, “Use of verbascoside in preparation of drug for preventing or treating glomerular podocyte injured renal disease” (SICHUAN MEDCO PHARMACEUTICAL STOCK CO., LTD., priority 2017, dated 2022)
